Reference: EPA's ToxValDB 9.5

Assays:
[1] = test system: Mus musculus; conditions: oral
[2] = test system: Rattus norvegicus; conditions: oral
[3] = test system: Rattus norvegicus; conditions: short-term, duration: 28 days, oral, gavage, F, Sprague-Dawley
[4] = developmental, duration: 17 days, F, Developmental: Decrease in number of successful birthsbirths
[5] = short-term, duration: 3 weeks, M, BALB/c, Immunotoxicological: ~36% decrease in spleen index during recovery / ~15% inhibition in Con Ainduced T-cell proliferation during treatment…
[6] = short-term, duration: 21 days, F, B6C3F1, Immunotoxicological: Decreased host resistance to influenza virus
[7] = subchronic, duration: 3 months, M/F, C57BL/6, Neurological: Impaired spatial learning and memory
[8] = subchronic, duration: 5 weeks, M, Body Weight: 17% decrease in body weight + Reproductive: Decreases in sperm concentration, serum testosterone levels / vacuolation in …
[9] = developmental, duration: 7 days, Sprague-Dawley, Body Weight: 30% reduction in body weight of dams + Developmental: 13% reduction in body weight of male pups
[10] = developmental, duration: 20 days, F, Sprague-Dawley, Developmental: 5-fold increased neonatal mortality on PNDs 1-3
[11] = developmental, duration: 21 days, F, Sprague-Dawley, Developmental: ~5-fold increased postnatal mortality and severe lung histopathology in pups
[12] = short-term, duration: 28 days, M, Sprague-Dawley, Body Weight: 12% decrease in terminal body weight
[13] = short-term, duration: 28 days, M, Sprague-Dawley, Neurological: Degeneration of gonadotropic cells of the pituitary gland at ?1.0 mg/kg/day / dense chromatin, condensed ribosomes, loss of …
[14] = short-term, duration: 28 days, M, Wistar, Neurological: Tonic convulsions in response to stimuli

O=S(=O)(O)C(F)(F)C(F)(F)C(F)(F)C(F)(F)C(F)(F)C(F)(F)C(F)(F)C(F)(F)F [Perfluorooctanesulfonic acid]
LOAEL ([1]; acute, duration: 1 days, M, C57BL/6, Death: LD50): 579 mg/kg-day | LOAEL ([1]; developmental, duration: 1 days, M, NMRI, Developmental: Altered spontaneous behavior (?60, 87.5, or 60% changes in total activity, rearing, and locomotion)): 11.3 mg/kg-day | LOAEL ([1]; developmental, duration: 17 days, CD1, Developmental: Significant increase in cholesterol levels in fetal livers): 3 mg/kg-day | LOAEL [1, 4]: 3 mg/kg-day | NOAEL [1, 4]: 0.1 mg/kg-day | LOAEL ([1]; developmental, duration: 19 days, F, CD1, Developmental: In PND 63 offspring fed a high fat diet, increased serum glucose levels at ?0.3 mg/kg/day in females (~40%) and 3 mg/kg/day …): 0.3 mg/kg-day | NOAEL ([1]; developmental, duration: 19 days, F, CD1, ~24% increase in relative liver weight in dams at 3 mg/kg/day + Developmental: Increase in relative liver weight at 3 mg/kg/day in male and …): 3 mg/kg-day | LOAEL ([1]; reproduction developmental, duration: 6 days, F, CD1, Body Weight: 21% reduction in maternal body weight gain on GDs 14-17): 8 mg/kg-day | NOAEL ([1]; reproduction developmental, duration: 17 days, CD1, Hepatic: No alteration in maternal hepatic lipid levels): 3 mg/kg-day | LOAEL ([1]; short-term, duration: 3 weeks, M, BALB/c, Body Weight: ~15% reduction in body weight during the recovery period): 10 mg/kg-day | LOAEL [1, 5]: 5 mg/kg-day | NOAEL [1, 5]: 2.5 mg/kg-day | LOAEL ([1]; short-term, duration: 7 days, F, BALB/c, Body Weight: 41% decreased body weight gain + Immunotoxicological: Inhibition of T lymphocyte proliferation in response to sRBC / decreased…): 20 mg/kg-day | NOAEL ([1]; short-term, duration: 7 days, F, BALB/c, Hepatic: 59% increase in relative liver weight): 20 mg/kg-day | LOAEL ([1]; short-term, duration: 7 days, M, Immunotoxicological: Impaired response to T-cell mitogens / suppressed response to sRBC): 5 mg/kg-day | NOAEL ([1]; short-term, duration: 10 days, M, C57BL/6, Hepatic: 41% increase in liver weight, hepatocellular hypertrophy, and decreased serum cholesterol levels): 6 mg/kg-day | LOAEL [1, 6]: 0.025 mg/kg-day | NOAEL [1, 6]: 0.005 mg/kg-day | LOAEL ([1]; short-term, duration: 28 days, M, B6C3F1, Body Weight: 21% reduction in body weight): 0.2 mg/kg-day | NOAEL ([1]; short-term, duration: 28 days, M, B6C3F1, Immunotoxicological: No alterations in thymic lymphocyte phenotypes, response to sRBC, or IgM antibodies to LPS): 0.2 mg/kg-day | LOAEL [1, 7]: 2.15 mg/kg-day | NOAEL [1, 7]: 0.43 mg/kg-day | LOAEL [1, 8]: 10 mg/kg-day | NOAEL [1, 8]: 0.5 mg/kg-day | NOAEL ([1]; subchronic, duration: 6 weeks, M, Hepatic: Decreased plasma triglyceride, total cholesterol, non-HDL cholesterol, and HDL cholesterol levels / increased hepatic triglyceride…): 3 mg/kg-day | NOAEL ([1]; subchronic, duration: 30 days, M, C57BL/6): 10 mg/kg-day | LOAEL ([1]; subchronic, duration: 30 days, M, C57BL/6, Body Weight: 31% reduction in body weight (correlated with 68% reduction in feed consumption)): 10 mg/kg-day | LOAEL ([1]; subchronic, duration: 30 days, M, C57BL/6, Hepatic: Increased liver weight (35%) and serum AST(~12%) and GGT levels (~98%) at ?[…] / increases in ALT (~45%) and ALP (~36%) at ?5 mg/…): 2.5 mg/kg-day | LOAEL ([2]; developmental, duration: 1 days, M/F, Wistar, Developmental: Decreased spatial learning ability in prenatally or postnatally exposed offspring at ?0.8 mg/kg/day and in offspring exposure…): 0.8 mg/kg-day | LOAEL ([2]; developmental, duration: 5 days, M/F, Sprague-Dawley, Body Weight: Reduced body weight in dams / approximately 98% on GD 8 and 33% on GD 20 + Developmental: Decreased birth weight in females …): 18.8 mg/kg-day | LOAEL [2, 9]: 20 mg/kg-day | NOAEL [2, 9]: 5 mg/kg-day | LOAEL [2, 10]: 2 mg/kg-day | NOAEL [2, 10]: 0.6 mg/kg-day | LOAEL [2, 11]: 2 mg/kg-day | NOAEL [2, 11]: 0.1 mg/kg-day | NOAEL ([2]; developmental, duration: 84 days, gavage, M/F, Sprague-Dawley, developmental): 7.43 mg/L | NOAEL ([2]; short-term, duration: 21 days, M, Sprague-Dawley): 10 mg/kg-day | LOAEL ([2]; short-term, duration: 21 days, M, Sprague-Dawley, Reproductive: Delayed maturation of testicular Leydig cells, decreased seminal vesicle weight, decreased epididymal sperm count, decreased …): 5 mg/kg-day | LOAEL ([2]; short-term, duration: 25 days, M, Sprague-Dawley, Endocrine: Decreases in serum corticosterone (~58%) and ACTH levels (~11%), decrease in corticotrophin releasing hormone levels in …): 0.5 mg/kg-day | NOAEL ([2]; short-term, duration: 28 days, M, Sprague-Dawley): 6 mg/kg-day | LOAEL [2, 12]: 3.21 mg/kg-day | NOAEL [2, 12]: 1.33 mg/kg-day | LOAEL ([2]; short-term, duration: 28 days, M, Sprague-Dawley, Death: 100% by day 26): 20 mg/kg-day | LOAEL ([2]; short-term, duration: 28 days, M, Sprague-Dawley, Endocrine: Decreased serum prolactin (~78%) and estradiol concentrations (~18%)): 3 mg/kg-day | LOAEL ([2]; short-term, duration: 28 days, M, Sprague-Dawley, Hepatic: Hepatocellular hypertrophy and focal necrosis at ?5 mg/kg/day / fatty degeneration at 20 mg/kg/day + Neurological: Cachexia and …): 5 mg/kg-day | NOAEL ([2]; short-term, duration: 28 days, M, Sprague-Dawley, Hepatic: Increased relative liver weight at ?0.14 mg/kg/day): 6.34 mg/kg-day | LOAEL [2, 13]: 1 mg/kg-day | NOAEL [2, 13]: 0.5 mg/kg-day | LOAEL [2, 14]: 8.5 mg/kg-day | NOAEL [2, 14]: 2 mg/kg-day | LOEL ([3]; Clinical chemistry_Alanine aminotransferase): 2.5 mg/kg-day | LOEL ([3]; Clinical chemistry_Albumin): 2.5 mg/kg-day | LOEL ([3]; Clinical chemistry_Albumin/globulin ratio): 2.5 mg/kg-day | LOEL ([3]; Clinical chemistry_Alkaline phosphatase): 2.5 mg/kg-day | NOEL ([3]; Clinical chemistry_Aspartate aminotransferase): 5 mg/kg-day | LOEL ([3]; Clinical chemistry_Cholesterol): 5 mg/kg-day | LOEL ([3]; Clinical chemistry_Direct bilirubin): 2.5 mg/kg-day | LOEL ([3]; Clinical chemistry_Free thyroxine): 0.312 mg/kg-day | NOEL ([3]; Clinical chemistry_Globulin): 5 mg/kg-day | NOEL ([3]; Clinical chemistry_Sorbitol dehydrogenase): 5 mg/kg-day | NOEL ([3]; Clinical chemistry_Testosterone): 5 mg/kg-day | NOEL ([3]; Clinical chemistry_Thyroid stimulating hormone): 5 mg/kg-day | LOEL ([3]; Clinical chemistry_Total bile acids): 2.5 mg/kg-day | LOEL ([3]; Clinical chemistry_Total bilirubin): 5 mg/kg-day | LOEL ([3]; Clinical chemistry_Total protein): 5 mg/kg-day | LOEL ([3]; Clinical chemistry_Total thyroxine): 0.312 mg/kg-day | LOEL ([3]; Clinical chemistry_Total triiodothyronine): 0.625 mg/kg-day | LOEL ([3]; Clinical chemistry_Triglycerides): 2.5 mg/kg-day | LOEL ([3]; Gene expression_Acox1): 0.312 mg/kg-day | LOEL ([3]; Gene expression_Cyp2b1): 0.312 mg/kg-day | LOEL ([3]; Gene expression_Cyp2b2): 0.312 mg/kg-day | LOEL ([3]; Gene expression_Cyp4a1): 0.312 mg/kg-day | NOEL ([3]; Hematology_Erythrocytes): 5 mg/kg-day | NOEL ([3]; Hematology_Hematocrit): 5 mg/kg-day | NOEL ([3]; Hematology_Hemoglobin): 5 mg/kg-day | NOEL ([3]; Hematology_Leukocytes): 5 mg/kg-day | LOEL ([3]; Hematology_Reticulocytes): 2.5 mg/kg-day | NOEL ([3]; Hematology_S. neutrophils): 5 mg/kg-day | LOEL ([3]; Nonneoplastic effects_Bone marrow - Hypocellularity): 2.5 mg/kg-day | NOEL ([3]; Nonneoplastic effects_Kidney - Papilla, necrosis): 5 mg/kg-day | LOEL ([3]; Nonneoplastic effects_Liver - Hepatocyte, cytoplasmic alteration): 1.25 mg/kg-day
